Laboratory results: publication PMC12693167, “Design, Synthesis and Anticancer Activity of 6-Substituted-1-(3,4,5-trimethoxyphenyl)-1H-indole Against Tubulin Polymerisation” (Molecules, 2025)

What was measured:
A375 cells = assay: CCK-8 antiproliferative assay, A375; format: cell-based; details: Homo sapiens, A-375; cell viability (CCK-8), 48 h
Protocol: (§1) To evaluate the anticancer potential of the synthesized compounds, a panel of six human and murine cancer cell lines representing different tissue origins was selected, including MCF-7 (human breast adenocarcinoma), MDA-MB-231 (human triple-negative breast cancer), A549 (human non-small cell lung cancer), HeLa (human cervical cancer), A375 (human melanoma), and B16-F10 (murine melanoma) (Table 2). […] DMSO was used as the vehicle control, and all experiments were performed in triplicate to ensure reproducibility.
(§2) Human breast cancer cells (MCF-7), human lung cancer cells (A549), human cervical cancer cells (HeLa), human triple-negative breast cancer cells (MDA-MB-231), and human malignant melanoma cells (A375) were cultured in DMEM. Mouse melanoma cells (B16F10) were maintained in RPMI-1640 medium. All media were supplemented with 10% fetal bovine serum and 1% penicillin-streptomycin (Life Technologies, Carlsbad, CA, USA) and maintained at 37 °C in a humidified atmosphere with 5% CO2.
(§3) The cytotoxicity of the test compounds was evaluated against MCF-7, A549, HeLa, MDA-MB-231, A375, and B16F10 using the CCK-8 assay. Cells were seeded into 96-well plates at a density of 5000 cells/well. After removing the medium, 100 μL of medium with 0.1% DMSO containing test compounds at different concentrations was added to each well and incubated at 37 °C for another 48 h. The CCK-8 solution was added and incubated for another 1 h, and then, the absorbance was detected with a microplate reader at a wavelength of 450 nm. The IC50 values were calculated by nonlinear regression analysis using GraphPad Prism 8.0.2. All the experiments were repeated at least three times.

A549 cells = assay: CCK-8 antiproliferative assay, A549; format: cell-based; details: Homo sapiens, cell viability (CCK-8), 48 h
Protocol: as §1, §2, §3

MCF-7 cells = assay: Annexin V-FITC/PI apoptosis assay; format: cell-based, human; details: 48 h
Protocol: Given that mitotic arrest induced by tubulin polymerization inhibitors is commonly associated with apoptosis, an Annexin V-FITC/propidium iodide (PI) assay was conducted to evaluate the pro-apoptotic effect of compound 3g in MCF-7 cells.
MCF-7 cells were seeded into 6-well plates and cultured overnight. After treating with compound 3g (0.1, 1, and 10 μM) for 48 h, cells were harvested and suspended in binding buffer containing annexin V-FITC (0.5 mg/mL) and PI (0.5 mg/mL). After that, samples were incubated for 20 min in the dark and analyzed with a flow cytometer.
Figure 7 Effects of compound 3g on apoptosis in MCF-7 cells. (A) Apoptosis induction by compound 3g in MCF-7 cells. Cells were treated with increasing concentrations of 3g (0.1, 1, and 10 μM) for 48 h, followed by Annexin V-FITC/PI staining and flow cytometric analysis. Cell populations were categorized as necrotic (upper left quadrant), late apoptotic (upper right), viable (lower left), and early apoptotic (lower right). (B) Quantification of apoptotic populations. Bar graphs show the percentage of cells in each apoptotic stage after treatment. Data are presented as mean ± SD from three independent experiments. Statistical significance was determined by one-way ANOVA followed by Tukey’s post hoc test. TEXT PRINTED IN THE PICTURE: (A) Control: Q1(20.37%); Q2(15.42%); Q4(59.96%); Q3(4.25%) | (A) no label printed: Q1(8.46%) (0.1 μM); Q2(23.10%) (0.1 μM); Q4(59.68%) (0.1 μM); Q3(8.75%) (0.1 μM); Q1(8.98%) (1 μM); Q2(29.15%) (1 μM); Q4(50.67%) (1 μM); Q3(11.19%) (1 μM); Q1-UL(12.21%) (10 μM); Q1-UR(40.63%) (10 μM); Q1-LL(34.55%) (10 μM); Q1-LR(12.61%) (10 μM) DOUBTS OF THE COPYIST ABOUT THIS PICTURE: The picture prints no label for the treated substance; only the concentrations 0.1 μM, 1 μM and 10 μM are printed over the plots, so they are given as conditions. / Control is untreated cells rather than a substance; it is listed because quadrant percentages are printed with that name. / The quadrant print is very small, so 3, 5, 6, 8 and 9 cannot be told apart with certainty in any of these values. / Control: Q1 20.37%, Q2 15.42%, Q4 59.96%, Q3 4.25% are best readings. / 0.1 μM: Q1 8.46%, Q2 23.10%, Q4 59.68%, Q3 8.75% are best readings. / 1 μM: Q1 8.98%, Q2 29.15%, Q4 50.67%, Q3 11.19% are best readings. / 10 μM: Q1-UL 12.21%, Q1-UR 40.63%, Q1-LL 34.55%, Q1-LR 12.61% are best readings.

B16-F10 cells = assay: CCK-8 antiproliferative assay, B16-F10; format: cell-based, murine; details: Mus musculus, cell viability (CCK-8), 48 h
Protocol: as §1, §2, §3

With `COc1cc(-n2ccc3ccc(-c4ccc(C)c(C#N)c4)cc32)cc(OC)c1OC` [3g, 2-methyl-5-(1-(3,4,5-trimethoxyphenyl)-1H-indol-6-yl)benzonitrile] the IC50 (A375 cells) was 570 ± 10 nM, the IC50 (A549 cells) was 6300 ± 300 nM and the apoptosis induction (MCF-7 cells; 10 μM) was “significantly inducing apoptosis”. The apoptotic cell populations (MCF-7 cells; 0.1, 1 and 10 μM) was “dose-dependent increase”, the viability at 0.1 µM (MCF-7 cells; Homo sapiens, MCF7, 0.1 μM, read-out: viable cells (lower left quadrant, Q4)) was 59.7% and the viability at 1 µM (MCF-7 cells; Homo sapiens, MCF7, 1 μM, read-out: viable cells (lower left quadrant, Q4)) was 50.7%. It also gave a viability at 10 µM (MCF-7 cells; Homo sapiens, MCF7, 10 μM, read-out: viable cells (lower left quadrant, Q1-LL)) of 34.5% and an IC50 (B16-F10 cells) of 1690 ± 410 nM.
